Results reported in US20040259936A1, “Treatment of neoplasia” (priority 2001, published 2004).

What was measured:
[1] = tested on: EL-4 tumor cells; assay: Cannabinoid-induced apoptosis in vitro (TUNEL or annexin V/PI); type: cell-based, murine; details: for induction of apoptosis (annexin/PI) compared with controls: 3 μM
Method: (§1) The cells were washed twice with PBS. […] Five thousand cells were analyzed per sample.

[2] = tested on: Molt-4; assay: Cannabinoid-induced apoptosis in vitro (TUNEL); type: cell-based, human; set-up: induction of apoptosis (TUNEL): dose or concentration left out as unconfirmed
Method: as §1

[3] = tested on: Jurkat; assay: Tumor-cell viability in vitro, trypan blue dye exclusion; type: cell-based, human
Method: (§2) Measurement of the effect of cannabinoid receptor aponistson tumor-cell viability in vitro: Tumor cells were adjusted to 1×10^6 cells/mL in medium containing 5% FCS or serum-free medium. The cells (1×10^6) were cultured in 24-well plates in 2 mL medium in the presence or absence of various concentrations of cannabinoid receptor agonists for 2 to 24 hours. Finally, the cells were harvested and washed twice in PBS, and the viable cell count was determined by trypan blue dye exclusion.

[4] = tested on: Sup-T1; assay: as above; type: cell-based, human; details: Sup-T1, 5 μM THC, 4 hours
Method: as §2

[5] = tested on: P815 tumor cells; assay: as above; type: cell-based, murine; details: P815, medium with 5% FCS, 24 hours
Method: as §2

[6] = tested on: LSA tumor cells; assay: as above; type: cell-based, murine; details: medium with 5% FCS, 24 hours
Method: as §2

[7] = tested on: EL-4 tumor cells; assay: as above; type: cell-based, murine; set-up: time required to induce tumor-cell killing: dose or concentration left out as unconfirmed
Method: as §2

[8] = tested on: P815 tumor cells; assay: Cannabinoid-induced apoptosis in vitro (TUNEL); type: cell-based, murine; details: P815, 5% FCS, 24 hours, 20 μM THC (printed 201M)
Method: as §1

[9] = tested on: LSA tumor cells; assay: Cannabinoid-induced apoptosis in vitro (TUNEL); type: cell-based, murine; details: 5% FCS, 24 hours, 20 μM THC (printed 201M)
Method: as §1

[10] = tested on: primary ALL cells; assay: Viability of primary ALL cells in vitro, trypan blue dye exclusion; type: cell-based, human; details: ALL no. 1 and ALL no. 2, serum-free medium, 2 hours
Description: Primary leukemic cells: Peripheral blood samples were obtained from 2 patients diagnosed with ALL. The samples were referred to as ALL no. 1 and ALL no. 2. ALL no. 1 was obtained from a patient newly diagnosed with common acute lymphoblastic leukemia antigen (CALLA) (CD10)-positive non-B, non-T ALL. ALL no. 2 was obtained from a patient newly diagnosed with terminal deoxynucleotidyl transferase (TdT)-positive T-cell ALL. Informed consent was obtained following institutional guidelines and approval was obtained from the institutional review board of Virginia Commonwealth University. Consent was provided according to the Declaration of Helsinki.
The content of the lymphoblasts was greater than 70% as determined by flow cytometric analysis. Mononuclear cells were isolated by Ficoll-Paque density gradient centrifugation. In this study, the samples were cryopreserved and stored in liquid nitrogen before use. Viability after thawing was determined by trypan blue dye exclusion and was greater than 90%.
Measurement of the effect of cannabinoid receptor aponistson tumor-cell viability in vitro: Tumor cells were adjusted to 1×10^6 cells/mL in medium containing 5% FCS or serum-free medium. […] Finally, the cells were harvested and washed twice in PBS, and the viable cell count was determined by trypan blue dye exclusion.

[11] = rats injected with 50 mg/kg, within 10 hours of administration; cited from earlier work
[12] = tested on: tumor cells; assay: Dose of THC that induced apoptosis in vitro, with and without serum; type: cell-based
Method: as §1

[13] = tested on: EL-4 tumor cells; assay: Survival of EL-4-challenged mice; type: in vivo, C57BL/6 mice; details: 5 mg/kg IP daily for 14 days
Method: Effect of THC on survival of EL-4-challenged mice: Groups of 8 C57BL/6 mice were injected […] with 1×10^6 EL-4 tumor cells in a volume of 100 μL PBS. One day following tumor injection, the mice received daily IP injections for 14 days with 5 mg/kg THC in a volume of 500 μL PBS. Control mice received injections with the vehicle control. The mice were observed daily for signs of morbidity and were euthanized. Mice that survived for more than 60 days were rechallenged with live EL-4 cells (1×10^6) and tested for their ability to reject tumor and survive.

[14] = tested on: thymus and spleen; assay: Cellularity of thymus and spleen after administration to C57BL/6 mice; details: resulted from apoptosis in immune cells
[15] = tested on: EL-4 tumor cells; assay: Tumor-cell viability and induction of apoptosis in vivo in EL-4 tumor-bearing mice; set-up: species or system C57BL/6 mice
Method: Measurement of tumor-cell viability and induction of apoptosis in vivo: Groups of 5 C57BL/6 mice were injected intraperitoneally (IP) with 1×10^6 EL-4 tumor cells suspended in 0.2 mL PBS. The control mice received PBS alone. Ten days later, the mice were injected with various concentrations of THC (0, 1, 3, or 5 mg/kg […]). The mice were killed 24 hours later and the EL-4 tumor cells were harvested from the peritoneal cavity by injecting 5.0 mL PBS, followed by aspiration of the peritoneal fluid from the cavity. The contaminating red blood cells were removed with red blood lysing solution (Sigma), and the tumor cells were washed twice with PBS. The number of viable cells was determined by trypan blue dye exclusion, and apoptosis was determined using the TUNEL assay. The presence of tumor cells in the peritoneal cavity was confirmed by the ability of the cells to grow in vitro and by the phenotype (Thyl-, CD4-, CD8-).

[16] = tested on: Molt-4; assay: Tumor-cell viability in vitro, trypan blue dye exclusion; type: cell-based, human; details: Molt-4, serum-free medium, 24 hours
Method: as §2

[17] = tested on: Jurkat; assay: Cannabinoid-induced apoptosis in vitro (TUNEL); type: cell-based, human; details: 5 μM JWH-015, serum-free medium, 24 hours
Method: as §1

[18] = cited from earlier work
[19] = biological target: CB2 receptors (Homo sapiens, UniProt P34972); details: human tumor cells, pretreatment with the CB2 antagonist
Chain of CB2 receptors (P34972 whole entry): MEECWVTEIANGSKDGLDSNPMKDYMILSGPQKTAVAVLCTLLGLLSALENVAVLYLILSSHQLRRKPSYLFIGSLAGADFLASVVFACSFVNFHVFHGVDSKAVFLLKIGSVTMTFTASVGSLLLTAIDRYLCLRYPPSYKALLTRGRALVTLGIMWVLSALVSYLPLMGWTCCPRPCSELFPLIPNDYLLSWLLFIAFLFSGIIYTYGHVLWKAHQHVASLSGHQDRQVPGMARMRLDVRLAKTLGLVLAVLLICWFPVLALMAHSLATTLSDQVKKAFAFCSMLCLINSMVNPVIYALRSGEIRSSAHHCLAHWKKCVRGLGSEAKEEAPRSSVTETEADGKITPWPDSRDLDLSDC
Method: Next, the cells were harvested, washed twice in PBS, and analyzed for the induction of apoptosis using either the terminal deoxynucleotidyl transferase-mediated end labeling (TUNEL) method or annexin V/propidium iodide (PI) method, as described elsewhere (references 14,15 incorporated herein by reference). To detect apoptosis using the TUNEL method, we washed the cells twice with PBS and fixed them with 4% p-formaldehyde for 30 minutes at room temperature. The cells were next washed with PBS, permeabilized on ice for 2 minutes, and incubated with fluorescein isothiocyanate-dUTP and TdT (Boehringer Mannheim, Indianapolis, Ind.) for 1 hour at 37° C. and 5% CO2. To detect apoptosis using the annexin V/PI method, we washed the cells twice with PBS and stained them with annexin V and PI for 20 minutes at room temperature. The cells were washed twice with PBS. The levels of apoptosis in both the TUNEL and annexin/PI assays were determined by measuring the fluorescence of the cells by flow cytometric analysis. Five thousand cells were analyzed per sample.

[20] = EL-4, serum-free medium, 4 hours
[21] = EL-4, serum-free medium, 5 μM, 4 hours
[22] = 5 mg/kg IP on day 10, harvest 24 hours later

## CCCCCCC(C)(C)c1cc(O)c2c(c1)OC(C)(C)[C@@H]1CC=C(CO)C[C@@H]21 [HU-210]
[1]; [20]
  induction of apoptosis (annexin/PI) compared with controls: significant increase in apoptosis

## Cc1c(C(=O)c2cccc3ccccc23)c2cccc3c2n1[C@H](CN1CCOCC1)CO3 [WIN55212]
[1]; [20]
  induction of apoptosis (annexin/PI) compared with controls: no significant effect

## CCCCC/C=C\C/C=C\C/C=C\C/C=C\CCCC(=O)NCCO [anandamide]
[2]; Molt-4, serum-free medium, 4 hours
  concentration leading to significant levels of apoptosis (TUNEL): ≥ 20 µM
[1]; [21]
  induction of apoptosis (TUNEL): slight increase in apoptosis
[1]; EL-4, serum-free medium, 10 μM, 4 hours
  induction of apoptosis (TUNEL): significant levels of apoptosis

## CCCCCc1cc(O)c2c(c1)OC(C)(C)[C@@H]1CCC(C)=C[C@@H]21 [THC, Delta-9-tetrahydrocannabinol]
[3]; 5 μM THC, 4 hours
  number of viable tumor cells: dramatic reduction in the number of viable tumor cells
[4]
  number of viable tumor cells: dramatic reduction in the number of viable tumor cells
[5]
  concentration leading to a significant reduction in the number of viable cells: ≥ 10 µM
[6]
  concentration leading to a significant reduction in the number of viable cells: ≥ 10 µM
[7]; EL-4, medium with 5% FCS, 24 hours
  concentration leading to a significant reduction in the number of viable cells: ≥ 10 µM
[7]; EL-4, serum-free medium
  time required to induce tumor-cell killing: 4 h
[7]; [20]
  concentration leading to a significant decrease in tumor-cell viability: 5 µM
[7]; EL-4, serum-free medium, 12 hours
  concentration causing a significant decrease in tumor-cell viability: 3 µM
[8]
  induction of apoptosis (TUNEL): induced significant apoptosis
[9]
  induction of apoptosis (TUNEL): induced significant apoptosis
[10]
  concentration resulting in significant reduction in viability: ≥ 5 µM
[11]
  THC in the serum: 10 µM
[1]; EL-4, 5% FCS, 24 hours, 20 μM THC (printed 201M)
  induction of apoptosis (TUNEL): induced significant apoptosis
[1]; [20]
  induction of apoptosis (annexin/PI) compared with controls: significant increase in apoptosis
[1]; [21]
  induction of apoptosis (TUNEL and annexin/PI): increase in the induction of apoptosis
[12]; serum-containing medium
  dose that induced apoptosis in vitro: ≥ 10 µM
[12]; serum-free medium
  dose that induced apoptosis in vitro: ≥ 3 µM
[13]
  survival of EL-4 tumor-bearing mice: significant increase in survival
[13]; listed as TEC
  mice that survived the tumor challenge / were cured: approximately 25%
[14]
  cellularity of the thymus and spleen: marked decrease in the cellularity of the thymus and spleen
[15]; 1 mg/kg IP on day 10, harvest 24 hours later
  viable tumor-cell number in the peritoneal cavity: failed to cause a decrease in cellularity
[15]; 3 mg/kg IP on day 10, harvest 24 hours later
  viable tumor-cell number in the peritoneal cavity: effective
[15]; [22]
  proportion of tumor cells showing apoptosis (TUNEL): 77.3%
  viable tumor-cell number in the peritoneal cavity: effective

## CCCn1c(C)c(C(=O)c2cccc3ccccc23)c2ccccc21 [JWH-015, (2-Methyl-1-propyl-1H-indol-3-yl)-1-naphthalenylmethanone]
[2]; Molt-4, JWH-015, serum-free medium, 24 hours
  induction of apoptosis (TUNEL): significant induction of apoptosis
[16]
  concentration leading to a significant decrease in the number of viable tumor cells: ≥ 5 µM
[3]; serum-free medium, 24 hours
  concentration leading to a significant decrease in the number of viable tumor cells: ≥ 5 µM
[17]
  induction of apoptosis (TUNEL): significant induction of apoptosis
[18]; DMSO
  soluble to, in DMSO: 10 mM
[18]; ethanol
  soluble to, in ethanol: 25 mM

## SR144528
[19]
  effect of pretreatment on THC-induced apoptosis: partially reversed
